This is an account of results in patent publication US20230233569A1 (Revolution Medicines, Inc., priority 2020, published 2023).

In the first assay the test system is 4EBP1 (Thr37/46) phosphorylation (mTORC1) in MDA-MB-468 cells. Nature of the assay: Cell based AlphaLISA assay, mTOR kinase cellular assay: inhibition of p-4E-BP1 (T37/46) in MDA-MB-468 cells. The note with it: Homo sapiens, read-out: pIC50 for Inhibition of mTORC1 and mTORC2 Substarte Phosphorylation p-4E-BP1-(T37/46) (converted). On the procedure:
(§1) Cell Based AlphaLISA Assays for Determining IC50 For Inhibition of P-Akt (S473), P-4E-BP1 (T37/46), and P-P70S6K (T389) in MDA-MB-468 Cells
(§2) mTOR Kinase Cellular Assay
(§3) To measure functional activity of mTORC1 and mTORC2 in cells the phosphorylation of 4EBP1 (Thr37/46) and P70S6K (Thr389), and AKT1/2/3 (Ser473) was monitored using AlphaLisa SureFire Ultra Kits (Perkin Elmer). MDA-MB-468 cells (ATCC® HTB-132) were cultured in 96-well tissue culture plates and treated with compounds in the disclosure at concentrations varying from 0.017-1,000 nM for two to four hours at 37° C. Incubations were terminated by removal of the assay buffer and addition of lysis buffer provided with the assay kit. Samples were processed according to the manufacturer's instructions. The Alpha signal from the respective phosphoproteins was measured in duplicate using a microplate reader (Envision, Perkin-Elmer or Spectramax M5, Molecular Devices). Inhibitor concentration response curves were analyzed using normalized IC50 regression curve fitting with control based normalization.
As to `CO[C@H]1C[C@@H]2CC[C@@H](C)[C@@](O)(O2)C(=O)C(=O)N2CCCC[C@H]2C(=O)O[C@H]([C@H](C)C[C@@H]2CC[C@@H](OC(=O)NCc3cnc(N4CCN(C(=O)CCOCCN5CCN(c6ncc(C(=O)NCCCCn7nc(-c8ccc9oc(N)nc9c8)c8c(N)ncnc87)cn6)CC5)CC4)nc3)[C@H](OC)C2)CC(=O)[C@H](C)/C=C(\C)[C@@H](O)[C@@H](OC)C(=O)[C@H](C)C[C@H](C)/C=C/C=C/C=C/1C` [Example 54], the IC50 was at most 3.16 nM.

As to `CO[C@H]1C[C@@H]2CC[C@@H](C)[C@@](O)(O2)C(=O)C(=O)N2CCCC[C@H]2C(=O)O[C@H]([C@H](C)C[C@@H]2CC[C@@H](OC(=O)NCc3cnc(N4CCN(c5ncc(C(=O)N6CCN(c7ncc(C(=O)N8CCc9cc(Cn%10nc(-c%11ccc%12oc(N)nc%12c%11)c%11c(N)ncnc%11%10)ccc9C8)cn7)CC6)cn5)CC4)nc3)[C@H](OC)C2)CC(=O)[C@H](C)/C=C(\C)[C@@H](O)[C@@H](OC)C(=O)[C@H](C)C[C@H](C)/C=C/C=C/C=C/1C` [Example 60], the IC50 is 3.16 to 31.6 nM.

In the case of `CO[C@H]1C[C@@H]2CC[C@@H](C)[C@@](O)(O2)C(=O)C(=O)N2CCCC[C@H]2C(=O)O[C@H]([C@H](C)C[C@@H]2CC[C@@H](OC(=O)NCCOCCOCCOCCOCCOCCOCCOCCOCCC(=O)NCc3ccc(Cn4nc(-c5ccc6oc(N)nc6c5)c5c(N)ncnc54)cc3)[C@H](OC)C2)C[C@H](N=[N+]=[N-])[C@H](C)/C=C(\C)[C@@H](O)[C@@H](OC)C(=O)[C@H](C)C[C@H](C)/C=C/C=C/C=C/1C` [Example 82], the IC50 was at most 3.16 nM.

For the compound `CO[C@H]1C[C@@H]2CC[C@@H](C)[C@@](O)(O2)C(=O)C(=O)N2CCCC[C@H]2C(=O)O[C@H]([C@H](C)C[C@@H]2CC[C@@H](OC(=O)NCc3cnc(N4CCN(C(=O)CN(C)CC(=O)NCCOCCOCCC(=O)N5CCc6cc(Cn7nc(-c8ccc9oc(N)nc9c8)c8c(N)ncnc87)ccc6C5)CC4)nc3)[C@H](OC)C2)C[C@@H](OC)[C@H](C)/C=C(\C)[C@@H](O)[C@@H](OC)C(=O)[C@H](C)C[C@H](C)/C=C/C=C/C=C/1C` [Example 103], the IC50 is over 1000 nM.

On to `CO[C@H]1C[C@@H]2CC[C@@H](C)[C@@](O)(O2)C(=O)C(=O)N2CCCC[C@H]2C(=O)O[C@H]([C@H](C)C[C@@H]2CC[C@@H](OC(=O)NCc3cnc(N4CCN(CCOCCN5CCN(c6ncc(C(=O)N7CCc8cc(Cn9nc(-c%10ccc%11oc(N)nc%11c%10)c%10c(N)ncnc%109)ccc8C7)cn6)CC5)CC4)nc3)[C@H](OC)C2)C[C@@H](OC)[C@H](C)/C=C(\C)[C@@H](O)[C@@H](OC)C(=O)[C@H](C)C[C@H](C)/C=C/C=C/C=C/1C` [Example 125], for which the IC50 was at most 3.16 nM.

For `CO[C@H]1C[C@@H]2CC[C@@H](C)[C@@](O)(O2)C(=O)C(=O)N2CCCC[C@H]2C(=O)O[C@H]([C@H](C)C[C@@H]2CC[C@@H](OC(=O)N3CCc4nc(N5CCN(CCOCCN6CCN(c7ncc(C(=O)N8CCc9cc(Cn%10nc(-c%11ccc%12oc(N)nc%12c%11)c%11c(N)ncnc%11%10)ccc9C8)cn7)CC6)CC5)ncc4C3)[C@H](OC)C2)C[C@@H](OC)[C@H](C)/C=C(\C)[C@@H](O)[C@@H](OC)C(=O)[C@H](C)C[C@H](C)/C=C/C=C/C=C/1C` [Example 126], the IC50 is 3.16 to 31.6 nM.

`CO[C@H]1C[C@@H]2CC[C@@H](C)[C@@](O)(O2)C(=O)C(=O)N2CCCC[C@H]2C(=O)O[C@H]([C@H](C)C[C@@H]2CC[C@@H](O)[C@H](OC)C2)CC(=O)[C@H](C)/C=C(\C)[C@@H](OC(=O)NCc2cnc(N3CCN(C(=O)CCOCCN4CCN(c5ncc(C(=O)N6CCc7cc(Cn8nc(-c9ccc%10oc(N)nc%10c9)c9c(N)ncnc98)ccc7C6)cn5)CC4)CC3)nc2)[C@@H](OC)C(=O)[C@H](C)C[C@H](C)/C=C/C=C/C=C/1C` [Example 133]: the IC50 was at most 3.16 nM.

The next assay has as its system AKT1/2/3 (Ser473) phosphorylation (mTORC2) in MDA-MB-468 cells. Nature of the assay: Cell based AlphaLISA assay, mTOR kinase cellular assay: inhibition of p-Akt (S473) in MDA-MB-468 cells. The conditions noted are these: Homo sapiens, read-out: pIC50 for Inhibition of mTORC1 and mTORC2 Substarte Phosphorylation p-AKT1/2/3-(S473) (converted). On the procedure:
as §1, §2, §3
In general terms: In Alpha technology, singlet oxygen from a donor bead excites a nearby acceptor bead.
Regarding `CO[C@H]1C[C@@H]2CC[C@@H](C)[C@@](O)(O2)C(=O)C(=O)N2CCCC[C@H]2C(=O)O[C@H]([C@H](C)C[C@@H]2CC[C@@H](OC(=O)NCc3cnc(N4CCN(C(=O)CCOCCN5CCN(c6ncc(C(=O)NCCCCn7nc(-c8ccc9oc(N)nc9c8)c8c(N)ncnc87)cn6)CC5)CC4)nc3)[C@H](OC)C2)CC(=O)[C@H](C)/C=C(\C)[C@@H](O)[C@@H](OC)C(=O)[C@H](C)C[C@H](C)/C=C/C=C/C=C/1C` [Example 54], the IC50 was at most 3.16 nM.

Consider `CO[C@H]1C[C@@H]2CC[C@@H](C)[C@@](O)(O2)C(=O)C(=O)N2CCCC[C@H]2C(=O)O[C@H]([C@H](C)C[C@@H]2CC[C@@H](OC(=O)NCc3cnc(N4CCN(C(=O)CN(C)CC(=O)NCCOCCOCCC(=O)N5CCc6cc(Cn7nc(-c8ccc9oc(N)nc9c8)c8c(N)ncnc87)ccc6C5)CC4)nc3)[C@H](OC)C2)C[C@@H](OC)[C@H](C)/C=C(\C)[C@@H](O)[C@@H](OC)C(=O)[C@H](C)C[C@H](C)/C=C/C=C/C=C/1C` [Example 103], for which the IC50 is over 1000 nM.

`CO[C@H]1C[C@@H]2CC[C@@H](C)[C@@](O)(O2)C(=O)C(=O)N2CCCC[C@H]2C(=O)O[C@H]([C@H](C)C[C@@H]2CC[C@@H](OC(=S)NCc3cnc(N4CCN(C(=O)CCOCCN5CCN(c6ncc(C(=O)N7CCc8cc(Cn9nc(-c%10ccc%11oc(N)nc%11c%10)c%10c(N)ncnc%109)ccc8C7)cn6)CC5)CC4)nc3)[C@H](OC)C2)CC(=O)[C@H](C)/C=C(\C)[C@@H](O)[C@@H](OC)C(=O)[C@H](C)C[C@H](C)/C=C/C=C/C=C/1C` [Example 116]: the IC50 is over 1000 nM.

For the compound `CO[C@H]1C[C@@H]2CC[C@@H](C)[C@@](O)(O2)C(=O)C(=O)N2CCCC[C@H]2C(=O)O[C@H]([C@H](C)C[C@@H]2CC[C@@H](OC(=S)NCc3cnc(N4CCN(C(=O)CCOCCN5CCN(c6ncc(C(=O)N7CCc8cc(Cn9nc(-c%10ccc%11oc(N)nc%11c%10)c%10c(N)ncnc%109)ccc8C7)cn6)CC5)CC4)nc3)[C@H](OC)C2)C[C@@H](OC)[C@H](C)/C=C(\C)[C@@H](O)[C@@H](OC)C(=O)[C@H](C)C[C@H](C)/C=C/C=C/C=C/1C` [Example 118], the IC50 is 3.16 to 31.6 nM.

With `CO[C@H]1C[C@@H]2CC[C@@H](C)[C@@](O)(O2)C(=O)C(=O)N2CCCC[C@H]2C(=O)O[C@H]([C@H](C)C[C@@H]2CC[C@@H](OC(=O)NCc3cnc(N4CCN(C(=O)CCOCCN5CCN(c6ncc(C(=O)NCCS(=O)(=O)c7ccc(C(=O)N8CCOc9ccc(-c%10ccc(N)nc%10)cc9C8)c(C)c7F)cn6)CC5)CC4)nc3)[C@H](OC)C2)C[C@@H](OC)[C@H](C)/C=C(\C)[C@@H](O)[C@@H](OC)C(=O)[C@H](C)C[C@H](C)/C=C/C=C/C=C/1C` [Example 120], the IC50 was 3.16 to 31.6 nM.

Turning to `CO[C@H]1C[C@@H]2CC[C@@H](C)[C@@](O)(O2)C(=O)C(=O)N2CCCC[C@H]2C(=O)O[C@H]([C@H](C)C[C@@H]2CC[C@@H](OC(=O)NCc3cnc(N4CCN(C(=O)CCOCCN5CCN(c6ncc(C(=O)NCCS(=O)(=O)c7ccc(C(=O)N8CCOc9ccc(-c%10ccc(N)nc%10)cc9C8)c(C)c7)cn6)CC5)CC4)nc3)[C@H](OC)C2)CC(=O)[C@H](C)/C=C(\C)[C@@H](O)[C@@H](OC)C(=O)[C@H](C)C[C@H](C)/C=C/C=C/C=C/1C` [Example 121], the IC50 is over 1000 nM.

As for `CO[C@H]1C[C@@H]2CC[C@@H](C)[C@@](O)(O2)C(=O)C(=O)N2CCCC[C@H]2C(=O)O[C@H]([C@H](C)C[C@@H]2CC[C@@H](OC(=O)NCc3cnc(N4CCN(C(=O)CCOCCN5CCN(C(=O)CCC(=O)N6CCc7cc(Cn8nc(-c9ccc%10oc(N)nc%10c9)c9c(N)ncnc98)ccc7C6)CC5)CC4)nc3)[C@H](OC)C2)C[C@@H](O)[C@H](C)/C=C(\C)[C@@H](O)[C@@H](OC)C(=O)[C@H](C)C[C@H](C)/C=C/C=C/C=C/1C` [Example 129], the IC50 is over 1000 nM.

Take `CO[C@H]1C[C@@H]2CC[C@@H](C)[C@@](O)(O2)C(=O)C(=O)N2CCCC[C@H]2C(=O)O[C@H]([C@H](C)C[C@@H]2CC[C@@H](OC(=O)NCc3cnc(N4CCN(C(=O)CCOCCN5CCN(C(=O)CCC(=O)N6CCc7cc(Cn8nc(-c9ccc%10oc(N)nc%10c9)c9c(N)ncnc98)ccc7C6)CC5)CC4)nc3)[C@H](OC)C2)C[C@@H](OC)[C@H](C)/C=C(\C)[C@@H](O)[C@@H](OC)C(=O)[C@H](C)C[C@H](C)/C=C/C=C/C=C/1C` [Example 130]: the IC50 was over 1000 nM.

For the compound `CO[C@H]1C[C@@H]2CC[C@@H](C)[C@@](O)(O2)C(=O)C(=O)N2CCCC[C@H]2C(=O)O[C@H]([C@H](C)C[C@@H]2CC[C@@H](OC(=O)NCc3cnc(N4CCN(C(=O)CCOCCN5CCN(c6ncc(C(=O)N7CCc8cc(Cn9nc(-c%10ccc%11oc(N)nc%11c%10)c%10c(N)ncnc%109)ccc8C7)cn6)CC5)[C@@H](C(=O)O)C4)nc3)[C@H](OC)C2)C[C@@H](OC)[C@H](C)/C=C(\C)[C@@H](O)[C@@H](OC)C(=O)[C@H](C)C[C@H](C)/C=C/C=C/C=C/1C` [Example 131], the IC50 was 3.16 to 31.6 nM.

Consider `CO[C@H]1C[C@@H]2CC[C@@H](C)[C@@](O)(O2)C(=O)C(=O)N2CCCC[C@H]2C(=O)O[C@H]([C@H](C)C[C@@H]2CC[C@@H](OC(=O)NCCOCCOCCN3CCN(CCOCCOCCOCCOCCC(=O)N4CCc5cc(Cn6nc(-c7ccc8oc(N)nc8c7)c7c(N)ncnc76)ccc5C4)CC3)[C@H](OC)C2)C[C@@H](O)[C@H](C)/C=C(\C)[C@@H](O)[C@@H](OC)C(=O)[C@H](C)C[C@H](C)/C=C/C=C/C=C/1C` [Example 135], for which the IC50 was over 1000 nM.

In the case of `CO[C@H]1C[C@@H]2CC[C@@H](C)[C@@](O)(O2)C(=O)C(=O)N2CCCC[C@H]2C(=O)O[C@H]([C@H](C)C[C@@H]2CC[C@@H](OC(=O)NCc3cnc(N4CCN(C(=O)CCOCCN5CCN(c6ncc(C(=O)N7CCc8cc(Cn9nc(-c%10ccc%11oc(N)nc%11c%10)c%10c(N)ncnc%109)ccc8C7)cn6)CC5)CC4)nc3)[C@H](OC)C2)C[C@H](N=[N+]=[N-])[C@H](C)/C=C(\C)[C@@H](O)[C@@H](OC)C(=O)[C@H](C)C[C@H](C)/C=C/C=C/C=C/1C` [Example 151], the IC50 was over 1000 nM.

As for `CO[C@H]1C[C@@H]2CC[C@@H](C)[C@@](O)(O2)C(=O)C(=O)N2CCCC[C@H]2C(=O)O[C@H]([C@H](C)C[C@@H]2CC[C@@H](OC(=O)NCCOCCOCCN3C[C@@H]4C[C@H]3CN4CCOCCOCCOCCOCCC(=O)N3CCc4cc(Cn5nc(-c6ccc7oc(N)nc7c6)c6c(N)ncnc65)ccc4C3)[C@H](OC)C2)C[C@@H](O)[C@H](C)/C=C(\C)[C@@H](O)[C@@H](OC)C(=O)[C@H](C)C[C@H](C)/C=C/C=C/C=C/1C` [Example 152], the IC50 is 31.6 to 1000 nM.
